Measured values from patent publication US10899759B2, “Positive allosteric modulators of the muscarinic acetylcholine receptor M1” (Vanderbilt University, priority 2016, dated 2021).
pEC50: −log10 of the molar value. Where two headings read alike, the source gives them in different places.

Molecular target: T1, human mAChR M1 (Homo sapiens, UniProt P11229)
T1 construct: host or cells: CHO-K1
T1 sequence (P11229 1-460): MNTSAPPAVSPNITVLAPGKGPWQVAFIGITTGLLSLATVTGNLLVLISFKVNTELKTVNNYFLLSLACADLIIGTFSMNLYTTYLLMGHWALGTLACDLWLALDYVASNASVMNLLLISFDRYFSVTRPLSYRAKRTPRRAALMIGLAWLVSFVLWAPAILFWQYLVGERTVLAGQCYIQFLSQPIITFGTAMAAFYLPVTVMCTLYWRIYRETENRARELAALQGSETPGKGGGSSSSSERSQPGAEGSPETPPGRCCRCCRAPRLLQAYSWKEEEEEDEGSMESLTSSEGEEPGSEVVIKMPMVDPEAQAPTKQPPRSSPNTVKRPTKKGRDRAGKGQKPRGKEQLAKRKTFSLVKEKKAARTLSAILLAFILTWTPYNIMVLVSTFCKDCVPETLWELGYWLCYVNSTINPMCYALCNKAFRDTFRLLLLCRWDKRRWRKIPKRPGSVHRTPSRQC
Assay: mAChR M1 cell-based functional assay (calcium mobilization, Fluo-4, FDSS)
Details: for pEC50: positive allosteric modulator activity as increase in the EC20 acetylcholine response
Procedure, shortened: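 CHO-K1 cells stably expressing muscarinic receptor, loaded with Fluo-4; 11-point 1:3 compound series added and calcium flux read over 300 s at 1 Hz. Agonism from direct calcium rise, PAM activity as potentiation of EC20 acetylcholine, antagonism as decrease of EC80 acetylcholine; four-parameter logistic fits.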

[1] = CHO-K1 cells stably expressing hM1, EC20 acetylcholine response, read-out: Human M1 Emax
[2] = CHO-K1 cells stably expressing hM1

Row | SMILES | Emax [1] | pEC50 [2] | Emax (CHO-K1, read-out: Human M1 Emax)
1 | O=C(NC1CC(F)(F)C1)c1cc(Cc2ccc(-n3cccn3)cc2)c2ccsc2n1 [Compound 83, N-(3,3-difluorocyclobutyl)-4-[(4-pyrazol-1-ylphenyl)methyl]thieno[2,3-b]pyridine-6-carboxamide] | 74.8% | 5.75 | –
2 | Cc1nc(-c2ccc(Cc3cc(C(=O)NC4(C)COC4)nc4sccc34)cc2)co1 [Compound 140, 4-[[4-(2-methyloxazol-4-yl)phenyl]methyl]-N-(3-methyloxetan-3-yl)thieno[2,3-b]pyridine-6-carboxamide] | 59.2% | 6.62 | –
3 | Cn1ccc(-c2ccc(Cc3cc(C(=O)NCC4CCOC4)nc4sccc34)cc2)n1 (centres unmarked) [Compound 95, 4-[[4-(1-methylpyrazol-3-yl)phenyl]methyl]-N-(tetrahydrofuran-3-ylmethyl)thieno[2,3-b]pyridine-6-carboxamide] | 65.5% | 6.43 | –
4 | Cn1ccc2c(Cc3ccc(-c4cscn4)cc3)cc(C(=O)N[C@H]3CC[C@@H]3O)nc21 [Compound 3, N-[(1S,2S)-2-hydroxycyclobutyl]-1-methyl-4-[(4-thiazol-4-ylphenyl)methyl]pyrrolo[2,3-b]pyridine-6-carboxamide] | – | 6.44 | 70.4%
5 | Cn1ccc2c(Cc3ccc(-c4cscn4)cc3)cc(C(=O)NC3CCOC(C)(C)C3)nc21 (centres unmarked) [Compound 25, N-(2,2-dimethyltetrahydropyran-4-yl)-1-methyl-4-[(4-thiazol-4-ylphenyl)methyl]pyrrolo[2,3-b]pyridine-6-carboxamide] | 76.7% | 6.17 | –
6 | Cn1ncc2c(Cc3ccc(-n4cccn4)cc3)cc(C(=O)N[C@H]3CCOC[C@@H]3O)nc21 [Compound 7, N-[(3R,4S)-3-hydroxytetrahydropyran-4-yl]-1-methyl-4-[(4-pyrazol-1-ylphenyl)methyl]pyrazolo[3,4-b]pyridine-6-carboxamide] | 89% | 6.70 | –
7 | CC1COCCC1NC(=O)c1cc(Cc2ccc(-c3ccn(C)n3)cc2)c2ccsc2n1 (centres unmarked) [Compound 93, 4-[[4-(1-methylpyrazol-3-yl)phenyl]methyl]-N-(3-methyltetrahydropyran-4-yl)thieno[2,3-b]pyridine-6-carboxamide] | 59.5% | 6.13 | –
8 | Cn1cc(-c2ccc(Cc3cc(C(=O)NC4CC5(COC5)C4)nc4sccc34)cn2)cn1 [Compound 123, 4-[[6-(1-methylpyrazol-4-yl)-3-pyridyl]methyl]-N-(2-oxaspiro[3.3]heptan-6-yl)thieno[2,3-b]pyridine-6-carboxamide] | 56.2% | 7.00 | –
9 | Cn1ccc(-c2ccc(Cc3cc(C(=O)NC4CCOCC4(C)C)nc4sccc34)cn2)n1 (centres unmarked) [Compound 105, N-(3,3-dimethyltetrahydropyran-4-yl)-4-[[6-(1-methylpyrazol-3-yl)-3-pyridyl]methyl]thieno[2,3-b]pyridine-6-carboxamide] | 63.5% | 6.43 | –
10 | Cn1ccc(-c2ccc(Cc3cc(C(=O)NC4CCOCC4(C)C)nc4c3ccn4C)cn2)n1 (centres unmarked) [Compound 147] | 81.6% | 6.72 | –
11 | Cn1ccc(-c2ccc(Cc3cc(C(=O)NC4CCOCC4(C)C)nc4sccc34)cc2)n1 (centres unmarked) [Compound 92, N-(3,3-dimethyltetrahydropyran-4-yl)-4-[[4-(1-methylpyrazol-3-yl)phenyl]methyl]thieno[2,3-b]pyridine-6-carboxamide] | 61.6% | 5.93 | –
12 | Cn1cc(-c2ccc(Cc3cc(C(=O)N[C@H]4CCOC4)nc4sccc34)cn2)cn1 [Compound 120, 4-[[6-(1-methylpyrazol-4-yl)-3-pyridyl]methyl]-N-[(3S)-tetrahydrofuran-3-yl]thieno[2,3-b]pyridine-6-carboxamide] | 56.9% | 7.10 | –
13 | C[C@@H]1CC(NC(=O)c2cc(Cc3ccc(-c4nccs4)cc3)c3ccn(C)c3n2)C[C@H](C)O1 (stereo partly drawn) [Compound 65, N-[(2S,6R)-2,6-dimethyltetrahydropyran-4-yl]-1-methyl-4-[(4-thiazol-2-ylphenyl)methyl]pyrrolo[2,3-b]pyridine-6-carboxamide] | 58.6% | 5.56 | –
14 | Cc1nc(-c2ccc(Cc3cc(C(=O)NC4CC(F)C4)nc4sccc34)cc2)co1 (centres unmarked) [Compound 141] | 35.9% | < 5.00 | –
15 | Cn1ccc2c(Cc3ccc(-c4cscn4)cc3)cc(C(=O)NC3CN(C4COC4)C3)nc21 [Compound 36, 1-methyl-N-[1-(oxetan-3-yl)azetidin-3-yl]-4-[(4-thiazol-4-ylphenyl)methyl]pyrrolo[2,3-b]pyridine-6-carboxamide] | 66% | 5.51 | –
16 | Cn1ccc(-c2ccc(Cc3cc(C(=O)N[C@H]4CCCC[C@@H]4O)nc4sccc34)cn2)n1 [Compound 101, N-[(1S,2S)-2-hydroxycyclohexyl]-4-[[6-(1-methylpyrazol-3-yl)-3-pyridyl]methyl]thieno[2,3-b]pyridine-6-carboxamide] | 67.2% | 5.58 | –
17 | Cc1nc(-c2ccc(Cc3cc(C(=O)NC4CCOC(C)(C)C4)nc4c3ccn4C)cc2)co1 (centres unmarked) [Compound 55, N-(2,2-dimethyltetrahydropyran-4-yl)-1-methyl-4-[[4-(2-methyloxazol-4-yl)phenyl]methyl]pyrrolo[2,3-b]pyridine-6-carboxamide] | 86.1% | 6.28 | –
18 | Cn1ccc(-c2ccc(Cc3cc(C(=O)NC4(C)COC4)nc4c3ccn4C)cn2)n1 [Compound 152, 1-methyl-N-(3-methyloxetan-3-yl)-4-[[6-(1-methylpyrazol-3-yl)-3-pyridyl]methyl]pyrrolo[2,3-b]pyridine-6-carboxamide] | 45.5% | < 5.00 | –
19 | COCC(C)NC(=O)c1cc(Cc2ccc(-c3ccn(C)n3)nc2)c2ccsc2n1 (centres unmarked) [Compound 112, N-(2-methoxy-1-methyl-ethyl)-4-[[6-(1-methylpyrazol-3-yl)-3-pyridyl]methyl]thieno[2,3-b]pyridine-6-carboxamide] | 59.5% | 6.41 | –
20 | Cc1nc(-c2ccc(Cc3cc(C(=O)N[C@H]4CCCC[C@@H]4O)nc4sccc34)cc2)co1 [Compound 129, N-[(1S,2S)-2-hydroxycyclohexyl]-4-[[4-(2-methyloxazol-4-yl)phenyl]methyl]thieno[2,3-b]pyridine-6-carboxamide] | 63.9% | 6.33 | –
21 | Cn1ccc(-c2ccc(Cc3cc(C(=O)NC[C@@H]4CCCO4)nc4c3ccn4C)cn2)n1 [Compound 158, 1-methyl-4-[[6-(1-methylpyrazol-3-yl)-3-pyridyl]methyl]-N-[[(2S)-tetrahydrofuran-2-yl]methyl]pyrrolo[2,3-b]pyridine-6-carboxamide] | 72.1% | 6.44 | –
22 | Cn1ccc2c(Cc3ccc(-n4cccn4)cc3)cc(C(=O)NC3CC4(COC4)C3)nc21 [Compound 19, 1-methyl-N-(2-oxaspiro[3.3]heptan-6-yl)-4-[(4-pyrazol-1-ylphenyl)methyl]pyrrolo[2,3-b]pyridine-6-carboxamide] | 68.7% | 6.96 | –
23 | Cn1ccc(-c2ccc(Cc3cc(C(=O)NC4CC(F)(F)C4)nc4sccc34)cc2)n1 [Compound 98, N-(3,3-difluorocyclobutyl)-4-[[4-(1-methylpyrazol-3-yl)phenyl]methyl]thieno[2,3-b]pyridine-6-carboxamide] | 68.7% | 5.78 | –
24 | Cn1ccc(-c2ccc(Cc3cc(C(=O)NCC4CCOCC4)nc4c3ccn4C)cn2)n1 [Compound 150] | 77.7% | 6.09 | –
25 | CC1(C)COCCC1NC(=O)c1cc(Cc2ccc(-n3cccn3)cc2)c2ccsc2n1 (centres unmarked) [Compound 74, N-(3,3-dimethyltetrahydropyran-4-yl)-4-[(4-pyrazol-1-ylphenyl)methyl]thieno[2,3-b]pyridine-6-carboxamide] | 69.1% | 5.89 | –
26 | Cc1nc(-c2ccc(Cc3cc(C(=O)NC4CCOC(C)(C)C4)nc4sccc34)cc2)co1 (centres unmarked) [Compound 131, N-(2,2-dimethyltetrahydropyran-4-yl)-4-[[4-(2-methyloxazol-4-yl)phenyl]methyl]thieno[2,3-b]pyridine-6-carboxamide] | 33.3% | – | –
27 | Cn1ncc2c(Cc3ccc(-c4cscn4)cc3)cc(C(=O)NC3CC4(COC4)C3)nc21 [Compound 30, 1-methyl-N-(2-oxaspiro[3.3]heptan-6-yl)-4-[(4-thiazol-4-ylphenyl)methyl]pyrazolo[3,4-b]pyridine-6-carboxamide] | 77.8% | 6.18 | –
28 | Cn1ccc2c(Cc3ccc(-c4cscn4)cc3)cc(C(=O)NCC3CCOCC3)nc21 [Compound 26, 1-methyl-N-(tetrahydropyran-4-ylmethyl)-4-[(4-thiazol-4-ylphenyl)methyl]pyrrolo[2,3-b]pyridine-6-carboxamide] | 52.6% | 6.39 | –
29 | CCn1ccc2c(Cc3ccc(-n4cccn4)cc3)cc(C(=O)N[C@H]3CCC[C@@H]3O)nc21 [Compound 14, 1-ethyl-N-[(1S,2S)-2-hydroxycyclopentyl]-4-[(4-pyrazol-1-ylphenyl)methyl]pyrrolo[2,3-b]pyridine-6-carboxamide] | 69.4% | 6.82 | –
30 | O=C(N[C@H]1CCOC1)c1cc(Cc2ccc(-n3cccn3)cc2)c2ccsc2n1 [Compound 77, 4-[(4-pyrazol-1-ylphenyl)methyl]-N-[(3S)-tetrahydrofuran-3-yl]thieno[2,3-b]pyridine-6-carboxamide] | 69.6% | 6.41 | –
